Patent publication US8569336B2, “Compounds for the treatment of inflammatory disorders” (priority 2008, dated 2013)
Read-outs that look alike come from different tables or passages of the source.

What was measured:
[1] = system: TNF-α production from human whole blood; assay: Inhibition of TNF-α production from human whole blood (hWBA), LPS stimulated, ELISA; type: cell-based; settings: Homo sapiens, TNF-α by ELISA, read-out: hWBA (IC50)
[2] = Area under the curve determinations of plasma levels in rats (rrAUC), oral 10 mg/kg; type: in vivo; settings: for AUC: rat, read-out: RR AUC (rapid rat AUC, rrAUC); for RR AUC (rapid rat AUC, rrAUC): blood collected 0.5-6 h post-dosing
[3] = target: T1, purified catalytic domain of recombinant human TACE (rhTACEc) (Homo sapiens, UniProt P78536, N452Q/S266A); assay: TACE kinetic assay: cleavage of internally quenched peptide substrate TNF-FRET 2 (Ki); type: biochemical; settings: TNF-FRET 2 substrate
T1 construct: 6xHis (C); made in house; host or cells: baculovirus/Hi5 insect cells
T1 sequence (P78536 215-477 S266A/N452Q): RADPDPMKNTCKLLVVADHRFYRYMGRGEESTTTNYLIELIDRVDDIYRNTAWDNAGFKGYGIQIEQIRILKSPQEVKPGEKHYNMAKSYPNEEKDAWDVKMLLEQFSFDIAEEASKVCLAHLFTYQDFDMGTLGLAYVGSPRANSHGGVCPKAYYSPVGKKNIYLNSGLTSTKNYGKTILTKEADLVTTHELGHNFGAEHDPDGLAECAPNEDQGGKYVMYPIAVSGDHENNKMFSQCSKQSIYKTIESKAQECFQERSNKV

[4] = 3.5 h, human whole blood diluted 1:1, LPS stimulated, 3.5 h
[5] = human whole blood diluted 1:1, LPS stimulated
[6] = LPS-stimulated human whole blood

COc1ccc2c(c1)C(=O)N(C[C@@]1(c3cc4nc(-c5ccc(N6CCOCC6)nc5)ccc4o3)NC(=O)NC1=O)C2 [Compound 2151]
IC50 [1, 4]: 800 nM
AUC ([2]; plasma 0.5-6 h post-dosing): 0.692 µM·h

COc1ccc2c(c1)C(=O)N(C[C@@]1(c3cc4c(C#N)nccc4o3)NC(=O)NC1=O)C2 [Compound 2445]
IC50 [1, 5]: 1240 nM
RR AUC (rapid rat AUC, rrAUC) [2]: 0.485 µM·h

COc1ccc2c(c1F)C(=O)N(C[C@@]1(c3cc4cc5c(c(-c6cccnc6)c4o3)C(=O)NC5)NC(=O)NC1=O)C2 [Compound 1310]
AUC ([2]; plasma 0.5-6 h): 0.614 µM·h

COc1ccc2c(c1)C(=O)N(C[C@@]1(c3cc4nc(N(c5cn[nH]c5)C5CCN(C)CC5)ccc4o3)NC(=O)NC1=O)C2 [Compound 1703]
Ki ([3]; Ki): 1 nM
AUC ([2]; plasma 0.5-6 h): 0.064 µM·h

CCCN1CCN(c2ccc3oc([C@]4(CN5Cc6ccc(OC)c(F)c6C5=O)NC(=O)NC4=O)cc3n2)CC1 [Compound 1708]
IC50 [1, 6]: 175 nM
AUC ([2]; plasma 0.5-6 h): 10.4 µM·h

COc1ccc2c(c1)C(=O)N(C[C@@]1(c3cc4nc(N5CC(C)NC(C)C5)ccc4o3)NC(=O)NC1=O)C2 (some centres unmarked) [Compound 2120]
IC50 [1, 4]: 1200 nM
AUC ([2]; plasma 0.5-6 h post-dosing): 5.19 µM·h

CCOC(=O)N1CCc2oc([C@]3(CN4Cc5ccc(OC)cc5C4=O)NC(=O)NC3=O)cc2C1 [Compound 2437]
IC50 [1, 5]: 654 nM
RR AUC (rapid rat AUC, rrAUC) [2]: 4.026 µM·h

COc1ccc2c(c1F)C(=O)N(C[C@@]1(c3cc4nc(N5CC(=O)NC5=O)c(F)cc4o3)NC(=O)NC1=O)C2 [Compound 1330]
Ki ([3]; Ki): 0.39 nM
AUC ([2]; plasma 0.5-6 h): 3.19 µM·h

COc1ccc2c(c1)C(=O)N(C[C@@]1(c3cc4nc(C(N)=O)ccc4o3)NC(=O)NC1=O)C2 [Compound 2457]
IC50 [1, 5]: 200 nM
RR AUC (rapid rat AUC, rrAUC) [2]: 0.113 µM·h

COc1ccc2c(c1F)C(=O)N(C[C@@]1(c3cc4nc(N5CCC(N(C)C)CC5)ccc4o3)NC(=O)NC1=O)C2 [Compound 1298]
IC50 [1, 4]: 79 nM
AUC ([2]; plasma 0.5-6 h post-dosing): 0.037 µM·h

COc1ccc2c(c1)C(=O)N(C[C@@]1(c3cc4nc(-c5cc[nH]c5)ccc4o3)NC(=O)NC1=O)C2 [Compound 1900]
Ki ([3]; read-out: Ki): 0.57 nM
IC50 [1, 6]: 459 nM

COc1ccc2c(c1)C(=O)N(C[C@@]1(c3cc4nc(NC5CCNCC5)ccc4o3)NC(=O)NC1=O)C2 [Compound 1723]
Ki ([3]; read-out: Ki): 2.66 nM
IC50 [1, 6]: 560 nM

COc1ccc2c(c1)C(=O)N(C[C@@]1(c3cc4c(ccc5sc(C)nc54)o3)NC(=O)NC1=O)C2 [Compound 1739]
Ki ([3]; read-out: Ki): 0.071 nM
IC50 [1, 6]: 4530 nM

COc1ccc2c(c1)C(=O)N(C[C@@]1(c3ccc(C(=O)O)cc3)NC(=O)NC1=O)C2 [Compound 2404]
Ki ([3]; read-out: Ki): 3.15 nM
IC50 [1, 5]: 1710 nM

COc1ccc2c(c1F)C(=O)N(C[C@@]1(c3cc4nc(N5CCCN(C)CC5)ccc4o3)NC(=O)NC1=O)C2 [Compound 1713]
Ki ([3]; read-out: Ki): 0.76 nM
IC50 [1, 6]: 153 nM

COc1ccc2c(c1)C(=O)N(C[C@@]1(c3cc4cc(C(=O)NO)ccc4o3)NC(=O)NC1=O)C2 [Compound 2402]
Ki ([3]; read-out: Ki): 0.5 nM
IC50 [1, 5]: 256 nM

COc1ccc2c(c1)C(=O)N(C[C@@]1(c3cc4nc(C(=O)O)ccc4o3)NC(=O)NC1=O)C2 [Compound 1514]
Ki ([3]; read-out: Ki): 0.7 nM
IC50 [1, 6]: 195 nM

CCN1CCCN(c2ccc3oc([C@]4(CN5Cc6ccc(OC)c(F)c6C5=O)NC(=O)NC4=O)cc3n2)CC1 [Compound 1727]
Ki ([3]; read-out: Ki): 0.048 nM
IC50 [1, 6]: 154 nM

COc1ccc2c(c1)C(=O)N(C[C@@]1(c3cc4cc(C(=NO)N5CCOCC5)ccc4o3)NC(=O)NC1=O)C2 [Compound 2454]
Ki ([3]; read-out: Ki): 0.49 nM
IC50 [1, 5]: 760 nM

COc1ccc2c(c1)C(=O)N(C[C@@]1(c3cc4cc(S(N)(=O)=O)ccc4o3)NC(=O)NC1=O)C2 [Compound 2478]
Ki ([3]; read-out: Ki): 0.35 nM
IC50 [1, 5]: 600 nM

COc1ccc2c(c1)C(=O)N(C[C@@]1(c3cc4nc(C(=O)NC5CC5)ccc4o3)NC(=O)NC1=O)C2 [Compound 2464]
Ki ([3]; read-out: Ki): 0.115 nM
IC50 [1, 5]: 367 nM

COc1ccc2c(c1)C(=O)N(C[C@@]1(c3cc4cnc(-c5c(C)nn(C)c5C)cc4o3)NC(=O)NC1=O)C2 [Compound 2251]
Ki ([3]; read-out: Ki): 0.746 nM
IC50 [1, 4]: 2490 nM

CCC1(c2ccc3oc([C@]4(CN5Cc6ccc(OC)cc6C5=O)NC(=O)NC4=O)cc3c2)NC(=O)NC1=O (some centres unmarked) [Compound 2208]
Ki ([3]; read-out: Ki): 0.249 nM
IC50 [1, 4]: 220 nM

COc1ccc2c(c1)C(=O)N(C[C@@]1(c3cc4c(N5CCNC(=O)C5)nccc4o3)NC(=O)NC1=O)C2 [Compound 2280]
Ki ([3]; read-out: Ki): 1.1 nM
IC50 [1, 5]: 340 nM

COc1ccc2c(c1)C(=O)N(C[C@@]1(c3cc4c[n+]([O-])ccc4o3)NC(=O)NC1=O)C2 [Compound 2259]
Ki ([3]; read-out: Ki): 1.08 nM
IC50 [1, 4]: 509 nM

COc1ccc2c(c1)C(=O)N(C[C@@]1(c3cc4nc(-c5ccc(F)c(C#N)c5)ccc4o3)NC(=O)NC1=O)C2 [Compound 1507]
Ki ([3]; read-out: Ki): 0.7 nM
IC50 [1, 6]: 4120 nM

COc1ccc2c(c1)C(=O)N(C[C@@]1(c3oc4cccnc4c3-c3ncccc3O)NC(=O)NC1=O)C2 [Compound 1940]
Ki ([3]; read-out: Ki): 0.75 nM
IC50 [1, 6]: 659 nM

COc1ccc2c(c1)C(=O)N(C[C@@]1(c3cc4nc(-c5ccnn5C)ccc4o3)NC(=O)NC1=O)C2 [Compound 2116]
IC50 [1, 4]: 1200 nM
AUC ([2]; plasma 0.5-6 h post-dosing): 5.19 µM·h

COc1ccc2c(c1)C(=O)N(C[C@@]1(c3cc4c(-c5cn[nH]c5)nccc4o3)NC(=O)NC1=O)C2 [Compound 2283]
Ki ([3]; read-out: Ki): 0.185 nM
IC50 [1, 5]: 154 nM

CCN1CC=C(c2nc3cc([C@]4(CN5Cc6ccc(OC)c(F)c6C5=O)NC(=O)NC4=O)oc3cc2F)CC1 [Compound 1321]
Ki ([3]; read-out: Ki): 0.64 nM
IC50 [1, 6]: 184 nM

COc1ccc2c(c1)C(=O)N(C[C@@]1(c3cc4nc(Nc5cn[nH]c5)ccc4o3)NC(=O)NC1=O)C2 [Compound 1729]
Ki ([3]; read-out: Ki): 0.43 nM
IC50 [1, 6]: 211 nM

COc1ccc2c(c1)C(=O)N(C[C@@]1(c3cc4c(C)nc(O)c(C(N)=O)c4o3)NC(=O)NC1=O)C2 [Compound 2435]
Ki ([3]; read-out: Ki): 1.14 nM
IC50 [1, 5]: 504 nM

COc1ccc2c(c1F)C(=O)N(C[C@@]1(c3ccc(-c4ccc(N)nc4)o3)NC(=O)NC1=O)C2 [Compound 310]
Ki ([3]; read-out: Ki): 0.0208 nM
IC50 [1, 6]: 244 nM

COc1ccc2c(c1)C(=O)N(C[C@@]1(c3cc4nc(-c5cc6ccccc6[nH]5)ccc4o3)NC(=O)NC1=O)C2 [Compound 2149]
Ki ([3]; read-out: Ki): 0.286 nM
IC50 [1, 4]: 534 nM

COc1ccc2c(c1F)C(=O)N(C[C@@]1(c3cc4nc(N(c5cn[nH]c5)C5CCN(C)CC5)ccc4o3)NC(=O)NC1=O)C2 [Compound 1717]
Ki ([3]; read-out: Ki): 0.62 nM
IC50 [1, 6]: 183 nM

COC(=O)c1cnc2cc([C@]3(CN4Cc5ccc(OC)cc5C4=O)NC(=O)NC3=O)oc2c1 [Compound 2458]
Ki ([3]; read-out: Ki): 0.518 nM
IC50 [1, 5]: 841 nM

COc1ccc2c(c1F)C(=O)N(C[C@@]1(c3cc4nc(N5CCNC(=O)C5)ccc4o3)NC(=O)NC1=O)C2 [Compound 1700]
Ki ([3]; Ki): 0.6 nM
AUC ([2]; plasma 0.5-6 h): 0.105 µM·h

COc1ccc2c(c1)C(=O)N(C[C@@]1(c3cc4cnc(NC(C)C)nc4o3)NC(=O)NC1=O)C2 [Compound 2298]
Ki ([3]; read-out: Ki): 1.69 nM
IC50 [1, 5]: ≥ 1000 nM

COc1ccc2c(c1)C(=O)N(C[C@@]1(c3cc4nc(-c5cncc(C#N)c5)ccc4o3)NC(=O)NC1=O)C2 [Compound 1529]
Ki ([3]; read-out: Ki): 0.8 nM
IC50 [1, 6]: 3660 nM

COc1ccc2c(c1)C(=O)N(C[C@@]1(c3ccc(C(N)=O)cc3)NC(=O)NC1=O)C2 [Compound 2403]
Ki ([3]; read-out: Ki): 1.3 nM
IC50 [1, 5]: 1970 nM

CCN1C[C@@H]2C[C@H]1CN2c1ccc2oc([C@]3(CN4Cc5ccc(OC)c(F)c5C4=O)NC(=O)NC3=O)cc2n1 [Compound 1292]
Ki ([3]; read-out: Ki): 0.86 nM
IC50 [1, 4]: 177 nM

COc1ccc2c(c1)C(=O)N(C[C@@]1(c3ccc(-c4ccc5c(c4)CN(CC4(C)NC(=O)NC4=O)C5=O)cc3)NC(=O)NC1=O)C2 (some centres unmarked) [Compound 2174]
Ki ([3]; read-out: Ki): 1.88 nM
IC50 [1, 4]: 617 nM

COc1ccc2c(c1)C(=O)N(C[C@@]1(c3cc4nc(-c5cnc(N)nc5)ccc4o3)NC(=O)NC1=O)C2 [Compound 1519]
Ki ([3]; read-out: Ki): 0.4 nM
IC50 [1, 6]: 142 nM

COc1ccc2c(c1F)C(=O)N(C[C@@]1(c3cc4nc(N5CCNCC5)ccc4o3)NC(=O)NC1=O)C2 [Compound 1725]
Ki ([3]; read-out: Ki): 0.6 nM
IC50 [1, 6]: 97 nM

COc1ccc2c(c1F)C(=O)N(C[C@@]1(c3cc4nc(N(c5cn[nH]c5)C5CCNCC5)ccc4o3)NC(=O)NC1=O)C2 [Compound 1724]
Ki ([3]; read-out: Ki): 1.31 nM
IC50 [1, 6]: 185 nM

COc1ccc2c(c1F)C(=O)N(C[C@@]1(c3cc4nc(C5CCNCC5)c(F)cc4o3)NC(=O)NC1=O)C2 [Compound 1323]
Ki ([3]; read-out: Ki): 0.08 nM
IC50 [1, 6]: 140 nM

COc1ccc2c(c1)C(=O)N(C[C@@]1(c3cc4nc(CO)ccc4o3)NC(=O)NC1=O)C2 [Compound 1945]
Ki ([3]; read-out: Ki): 0.69 nM
IC50 [1, 6]: 728 nM

COc1ccc2c(c1)C(=O)N(C[C@@]1(c3cc4c(-c5ccccc5F)nccc4o3)NC(=O)NC1=O)C2 [Compound 2237]
Ki ([3]; read-out: Ki): 0.356 nM
IC50 [1, 4]: 1150 nM

COc1ccc2c(c1)C(=O)N(C[C@@]1(c3cc4cncc(Br)c4o3)NC(=O)NC1=O)C2 [Compound 2303]
Ki ([3]; read-out: Ki): 0.312 nM
IC50 [1, 5]: 630 nM

COc1ccc2c(c1)C(=O)N(C[C@@]1(c3cc4ncc(CNCc5ccccc5)cc4o3)NC(=O)NC1=O)C2 [Compound 1912]
Ki ([3]; read-out: Ki): 2.24 nM
IC50 [1, 6]: 3200 nM

COc1ccc2c(c1)C(=O)N(C[C@@]1(c3cc4cnc(C5=NCCN5)cc4o3)NC(=O)NC1=O)C2 [Compound 2273]
Ki ([3]; read-out: Ki): 0.124 nM
IC50 [1, 4]: 747 nM

COc1ccc2c(c1)C(=O)N(C[C@@]1(c3cc4cc(/C=N/O)ccc4o3)NC(=O)NC1=O)C2 [Compound 2420]
Ki ([3]; read-out: Ki): 0.4 nM
IC50 [1, 5]: 328 nM

O=C1NC(=O)[C@](CN2Cc3ccc(O)cc3C2=O)(c2cc3cnccc3o2)N1 [Compound 2188]
Ki ([3]; read-out: Ki): 2.26 nM
IC50 [1, 4]: 2990 nM

COc1ccc2c(c1)C(=O)N(C[C@@]1(c3cc4cc(CNc5ccccn5)ccc4o3)NC(=O)NC1=O)C2 [Compound 2181]
Ki ([3]; read-out: Ki): 0.343 nM
IC50 [1, 4]: 1650 nM
